Publication PMC9686928, “10-mer and 9-mer WALK Peptides with Both Antibacterial and Anti-Inflammatory Activities” (Antibiotics, 2022)
In brackets after ≈: the same amount, converted by molar mass. Where no end group is shown, it is not given here.

Experiments:
[1] = test system: two Gram-positive and two Gram-negative bacterial strains; experiment: Antimicrobial assay, MICs over the four strains (geometric mean); type: cell-based, B. subtilis, S. aureus, E. coli, S. dysentariae; details: geometric mean of the MICs against the four strains
Description: (§1) The antimicrobial activity of each peptide was assessed against four strains, including two Gram-positive (Bacillus subtilis ATCC 6633 and Staphylococcus aureus ATCC 6538p) and two Gram-negative bacteria (Escherichia coli ATCC 25922 and Shigella dysentariae ATCC 9752) cultured in Luria-Bertani broth media. Antibacterial susceptibility was determined as the MIC value, which was measured using the standard broth microdilution method as described previously. […] Two conventional antibiotics, ampicillin and kanamycin, were used as controls to confirm antibiotic susceptibility. The tests were performed in triplicate, and the MIC values that were reproduced twice or thrice in the three independent measurements were employed to calculate the GM value.

[2] = test system: Escherichia coli ATCC 25922; experiment: microbe, parasite or virus in culture; type: cell-based; details: Gram-negative, broth microdilution, Luria-Bertani broth, 1–64 μg/mL two-fold serial dilutions, triplicate
Description: as §1

[3] = test system: Shigella dysentariae ATCC 9752; experiment: microbe, parasite or virus in culture; type: cell-based; details: Gram-negative, broth microdilution, Luria-Bertani broth, 1–64 μg/mL two-fold serial dilutions, triplicate
Description: as §1

[4] = test system: Bacillus subtilis ATCC 6633; experiment: microbe, parasite or virus in culture; type: cell-based; details: Gram-positive, broth microdilution, Luria-Bertani broth, 1–64 μg/mL two-fold serial dilutions, lowest concentration that completely inhibited growth, triplicate
Description: as §1

[5] = test system: Staphylococcus aureus ATCC 6538p; experiment: microbe, parasite or virus in culture; type: cell-based; details: Gram-positive, broth microdilution, Luria-Bertani broth, 1–64 μg/mL two-fold serial dilutions, triplicate
Description: as §1

human red blood cells = human red blood cells 10% v/v in PBS, 1 h; for MHC, minimal hemolytic concentration: lowest concentration showing 5% or more hemolysis, 1–64 μg/mL, A550, relative to 0.2% Triton X-100, triplicate
Description: Briefly, suspensions of human red blood cells (10% v/v in PBS) were treated for 1 h with various concentrations (1–64 μg/mL, two-fold serial dilutions) of peptides, followed by measurement of the absorbance of the supernatant at 550 nm. The relative attenuation was determined as the percentage of hemolysis compared to that of the blood suspension treated with 0.2% Triton X-100. The tests were performed in triplicate, and the average values of three independent measurements were recorded.

CC1(C)S[C@@H]2[C@H](NC(=O)[C@H](N)c3ccccc3)C(=O)N2[C@H]1C(=O)O [Ampicillin, ampicillin, reference compound]
geometric mean MIC ([1]; read-out: GM, geometric mean of MICs): ≤ 1 µg/mL | MIC ([2]; Escherichia coli, ATCC25922): ≤ 1 µg/mL | MIC ([3]; Shigella, ATCC9752, read-out: MIC, S. dysentariae): ≤ 1 µg/mL | MIC ([4]; Bacillus subtilis, ATCC6633, read-out: MIC, B. subtilis): ≤ 1 µg/mL | MIC ([5]; Staphylococcus aureus, ATCC6538P, read-out: MIC, S. aureus): ≤ 1 µg/mL

NC[C@H]1O[C@H](O[C@H]2[C@H](O)[C@@H](O[C@H]3O[C@H](CO)[C@@H](O)[C@H](N)[C@H]3O)[C@H](N)C[C@@H]2N)[C@H](O)[C@@H](O)[C@@H]1O [Kanamycin, kanamycin, reference compound]
GM, geometric mean of MICs [1]: 4.8 µg/mL | MIC, E. coli [2]: 4 µg/mL (≈ 8.26 µM) | MIC, S. dysentariae [3]: 8 µg/mL (≈ 16.5 µM) | MIC, B. subtilis [4]: 4 µg/mL (≈ 8.26 µM) | MIC, S. aureus [5]: 4 µg/mL (≈ 8.26 µM)

KKLLKWLLKW-NH2 [WALK244.06]
MHC, minimal hemolytic concentration (human red blood cells): 32 µg/mL | GM, geometric mean of MICs [1]: 6.3 µg/mL | MIC, E. coli [2]: 16 µg/mL | MIC, S. dysentariae [3]: 16 µg/mL | MIC, B. subtilis [4]: 2 µg/mL | MIC, S. aureus [5]: 3 µg/mL

KWLKKLLKWL-NH2 [WALK244.09]
percentage hemolysis (human red blood cells; at 64 μg/mL, relative to 0.2% Triton X-100, average of three measurements): 80.7% | MHC, minimal hemolytic concentration (human red blood cells): 8 µg/mL | GM, geometric mean of MICs [1]: ≤1.7 µg/mL | MIC, E. coli [2]: 2 µg/mL | MIC, S. dysentariae [3]: 2 µg/mL | MIC, B. subtilis [4]: ≤1 µg/mL | MIC, S. aureus [5]: 2 µg/mL

KWLLKLLKW-NH2 [WALK243.09]
MHC, minimal hemolytic concentration (human red blood cells): 64 µg/mL | GM, geometric mean of MICs [1]: 6.7 µg/mL | MIC, E. coli [2]: 8 µg/mL | MIC, S. dysentariae [3]: 16 µg/mL | MIC, B. subtilis [4]: 4 µg/mL | MIC, S. aureus [5]: 4 µg/mL

LKKWLKWLL-NH2 [WALK243.07]
MHC, minimal hemolytic concentration (human red blood cells): 16 µg/mL | GM, geometric mean of MICs [1]: 2.4 µg/mL | MIC, E. coli [2]: 2 µg/mL | MIC, S. dysentariae [3]: 4 µg/mL | MIC, B. subtilis [4]: 2 µg/mL | MIC, S. aureus [5]: 2 µg/mL

LKWLKKLLKW-NH2 [WALK244.10]
MHC, minimal hemolytic concentration (human red blood cells): 32 µg/mL | GM, geometric mean of MICs [1]: 4.0 µg/mL | MIC, E. coli [2]: 8 µg/mL | MIC, S. dysentariae [3]: 8 µg/mL | MIC, B. subtilis [4]: 2 µg/mL | MIC, S. aureus [5]: 2 µg/mL

LKWLLKWLK-NH2 [WALK243.03]
MHC, minimal hemolytic concentration (human red blood cells): 32 µg/mL | GM, geometric mean of MICs [1]: 6.7 µg/mL | MIC, E. coli [2]: 8 µg/mL | MIC, S. dysentariae [3]: 16 µg/mL | MIC, B. subtilis [4]: 4 µg/mL | MIC, S. aureus [5]: 4 µg/mL

LKWLLKWLKK-NH2 [WALK244.03]
MHC, minimal hemolytic concentration (human red blood cells): 64 µg/mL | GM, geometric mean of MICs [1]: 11.3 µg/mL | MIC, E. coli [2]: 8 µg/mL | MIC, S. dysentariae [3]: 32 µg/mL | MIC, B. subtilis [4]: 8 µg/mL | MIC, S. aureus [5]: 8 µg/mL

WLKKLLKWL-NH2 [WALK243.08]
MHC, minimal hemolytic concentration (human red blood cells): 8 µg/mL | GM, geometric mean of MICs [1]: 2.0 µg/mL | MIC, E. coli [2]: 2 µg/mL | MIC, S. dysentariae [3]: 2 µg/mL | MIC, B. subtilis [4]: 2 µg/mL | MIC, S. aureus [5]: 2 µg/mL

WLKKLLKWLK-NH2 [WALK244.08]
MHC, minimal hemolytic concentration (human red blood cells): 8 µg/mL | GM, geometric mean of MICs [1]: ≤2.0 µg/mL | MIC, E. coli [2]: 2 µg/mL | MIC, S. dysentariae [3]: 4 µg/mL | MIC, B. subtilis [4]: 2 µg/mL | MIC, S. aureus [5]: ≤1 µg/mL

WLKKWLKKLL-NH2 [WALK244.01]
MHC, minimal hemolytic concentration (human red blood cells): 16 µg/mL | GM, geometric mean of MICs [1]: ≤1.7 µg/mL | MIC, E. coli [2]: 2 µg/mL | MIC, S. dysentariae [3]: 2 µg/mL | MIC, B. subtilis [4]: ≤1 µg/mL | MIC, S. aureus [5]: 2 µg/mL

WLLKWLKKL-NH2 [WALK243.01]
MHC, minimal hemolytic concentration (human red blood cells): 32 µg/mL | GM, geometric mean of MICs [1]: 4.8 µg/mL | MIC, E. coli [2]: 4 µg/mL | MIC, S. dysentariae [3]: 8 µg/mL | MIC, B. subtilis [4]: 4 µg/mL | MIC, S. aureus [5]: 4 µg/mL
